According to publication PMC4774911, “Biochemical Screening of Five Protein Kinases from Plasmodium falciparum against 14,000 Cell-Active Compounds” (PLoS ONE, 2016):
Values joined by “and” are separate entries in the source; they are usually repeats but may differ in a detail not shown here. Equal entries are not always repeated.

Experiments:
Experiment in all cases: biochemical
MAP3K11 = MAP3K11 (Homo sapiens, UniProt Q16584)
MAP3K3 = target: T1, MAP3K3 (Homo sapiens, UniProt Q99759)
T1 sequence (Q99759 1-626): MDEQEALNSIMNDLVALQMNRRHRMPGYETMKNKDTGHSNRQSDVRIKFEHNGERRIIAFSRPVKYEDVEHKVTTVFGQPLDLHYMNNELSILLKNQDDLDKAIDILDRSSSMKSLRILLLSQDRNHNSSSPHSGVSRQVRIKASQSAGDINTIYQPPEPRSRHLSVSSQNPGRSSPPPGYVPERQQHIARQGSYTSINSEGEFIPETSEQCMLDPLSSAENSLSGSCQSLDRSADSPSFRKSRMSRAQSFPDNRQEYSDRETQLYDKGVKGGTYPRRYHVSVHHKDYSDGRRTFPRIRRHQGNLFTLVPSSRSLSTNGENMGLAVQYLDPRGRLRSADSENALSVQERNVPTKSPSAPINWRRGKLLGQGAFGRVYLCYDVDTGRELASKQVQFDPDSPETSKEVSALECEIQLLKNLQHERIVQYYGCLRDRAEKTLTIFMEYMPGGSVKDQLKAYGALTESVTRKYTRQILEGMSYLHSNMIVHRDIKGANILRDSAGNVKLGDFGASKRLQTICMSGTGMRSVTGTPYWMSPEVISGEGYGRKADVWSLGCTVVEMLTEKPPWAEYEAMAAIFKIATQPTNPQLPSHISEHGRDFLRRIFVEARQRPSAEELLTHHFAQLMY

MAST3 = MAST3 (Homo sapiens, UniProt O60307)
NLK = target: T2, NLK (Homo sapiens, UniProt Q9UBE8)
T2 sequence (Q9UBE8 1-527): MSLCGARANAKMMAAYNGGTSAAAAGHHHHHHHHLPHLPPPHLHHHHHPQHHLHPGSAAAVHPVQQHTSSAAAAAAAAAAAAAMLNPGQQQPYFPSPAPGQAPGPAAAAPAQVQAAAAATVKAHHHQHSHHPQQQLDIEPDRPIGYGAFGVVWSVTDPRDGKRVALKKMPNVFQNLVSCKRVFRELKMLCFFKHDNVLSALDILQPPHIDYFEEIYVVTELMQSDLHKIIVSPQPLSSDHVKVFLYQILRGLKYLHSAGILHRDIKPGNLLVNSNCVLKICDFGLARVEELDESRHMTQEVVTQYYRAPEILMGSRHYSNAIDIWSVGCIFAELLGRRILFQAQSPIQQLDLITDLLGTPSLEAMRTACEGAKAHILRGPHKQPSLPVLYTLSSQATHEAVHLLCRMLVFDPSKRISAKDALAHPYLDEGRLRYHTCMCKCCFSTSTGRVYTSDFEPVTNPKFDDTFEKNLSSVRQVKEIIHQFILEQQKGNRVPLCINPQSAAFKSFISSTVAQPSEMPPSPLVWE

BMPR1A = BMPR1A (Homo sapiens, UniProt P36894)
CAMK2A = CAMK2A (Homo sapiens, UniProt Q9UQM7)
DSTYK = DSTYK (Homo sapiens, UniProt Q6XUX3)
LIMK2 = LIMK2 (Homo sapiens, UniProt P53671)
MAP4K4 = MAP4K4 (Homo sapiens, UniProt O95819)
TAOK3 = target: T3, TAOK3 (Homo sapiens, UniProt Q9H2K8)
T3 sequence (Q9H2K8 1-898): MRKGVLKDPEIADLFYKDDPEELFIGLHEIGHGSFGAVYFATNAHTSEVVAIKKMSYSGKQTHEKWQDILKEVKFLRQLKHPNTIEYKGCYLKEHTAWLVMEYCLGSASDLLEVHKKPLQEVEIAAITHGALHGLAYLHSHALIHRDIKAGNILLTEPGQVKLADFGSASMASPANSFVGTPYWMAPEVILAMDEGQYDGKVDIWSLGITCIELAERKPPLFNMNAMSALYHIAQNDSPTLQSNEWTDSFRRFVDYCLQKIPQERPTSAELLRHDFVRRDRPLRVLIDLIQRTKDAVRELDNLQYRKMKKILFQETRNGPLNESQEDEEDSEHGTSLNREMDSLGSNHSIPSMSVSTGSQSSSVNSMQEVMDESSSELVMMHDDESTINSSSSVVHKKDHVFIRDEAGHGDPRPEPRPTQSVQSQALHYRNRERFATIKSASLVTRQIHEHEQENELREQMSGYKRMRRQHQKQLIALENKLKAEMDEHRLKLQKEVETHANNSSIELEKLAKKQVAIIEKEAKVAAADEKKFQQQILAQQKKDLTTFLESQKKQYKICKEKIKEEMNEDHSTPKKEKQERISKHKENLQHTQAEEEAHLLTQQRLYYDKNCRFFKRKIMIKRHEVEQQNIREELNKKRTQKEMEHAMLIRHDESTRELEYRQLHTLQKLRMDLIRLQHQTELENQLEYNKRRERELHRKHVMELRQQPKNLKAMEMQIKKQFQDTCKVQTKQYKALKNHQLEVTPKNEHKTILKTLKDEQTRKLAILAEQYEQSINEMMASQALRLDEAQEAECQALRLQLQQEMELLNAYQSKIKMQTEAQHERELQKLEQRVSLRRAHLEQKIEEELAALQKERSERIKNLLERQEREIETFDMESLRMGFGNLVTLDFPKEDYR

Chain of MAP4K4 (O95819 whole entry): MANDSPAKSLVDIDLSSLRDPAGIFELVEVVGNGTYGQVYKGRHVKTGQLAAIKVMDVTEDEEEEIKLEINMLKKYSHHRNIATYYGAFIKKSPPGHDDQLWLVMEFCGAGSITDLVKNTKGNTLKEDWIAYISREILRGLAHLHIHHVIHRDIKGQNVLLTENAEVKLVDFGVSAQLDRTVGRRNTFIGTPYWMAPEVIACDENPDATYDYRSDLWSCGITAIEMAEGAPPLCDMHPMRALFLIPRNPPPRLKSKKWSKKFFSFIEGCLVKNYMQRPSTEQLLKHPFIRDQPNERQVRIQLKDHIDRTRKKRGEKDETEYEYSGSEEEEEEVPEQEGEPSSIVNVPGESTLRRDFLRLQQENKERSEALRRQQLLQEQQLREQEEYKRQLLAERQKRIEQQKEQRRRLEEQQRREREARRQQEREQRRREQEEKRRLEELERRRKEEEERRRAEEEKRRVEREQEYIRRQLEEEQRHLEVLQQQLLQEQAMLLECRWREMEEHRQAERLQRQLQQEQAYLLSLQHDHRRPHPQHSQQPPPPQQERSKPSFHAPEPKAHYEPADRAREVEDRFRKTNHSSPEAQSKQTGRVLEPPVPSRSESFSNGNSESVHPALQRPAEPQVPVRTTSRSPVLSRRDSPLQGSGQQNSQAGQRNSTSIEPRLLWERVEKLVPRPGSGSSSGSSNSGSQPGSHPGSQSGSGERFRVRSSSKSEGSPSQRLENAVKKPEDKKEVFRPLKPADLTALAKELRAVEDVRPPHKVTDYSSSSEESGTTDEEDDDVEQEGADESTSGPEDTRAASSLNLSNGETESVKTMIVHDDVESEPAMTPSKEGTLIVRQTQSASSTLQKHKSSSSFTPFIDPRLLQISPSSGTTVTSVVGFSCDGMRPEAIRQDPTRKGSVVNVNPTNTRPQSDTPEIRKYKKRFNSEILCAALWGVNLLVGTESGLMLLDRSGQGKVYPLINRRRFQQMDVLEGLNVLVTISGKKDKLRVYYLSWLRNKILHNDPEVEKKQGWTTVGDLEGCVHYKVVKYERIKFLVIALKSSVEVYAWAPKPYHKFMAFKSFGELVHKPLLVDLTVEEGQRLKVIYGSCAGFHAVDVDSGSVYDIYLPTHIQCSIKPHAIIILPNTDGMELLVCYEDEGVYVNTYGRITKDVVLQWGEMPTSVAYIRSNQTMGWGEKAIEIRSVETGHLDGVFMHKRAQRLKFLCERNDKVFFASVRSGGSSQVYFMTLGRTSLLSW
Chain of MAP3K11 (Q16584 whole entry): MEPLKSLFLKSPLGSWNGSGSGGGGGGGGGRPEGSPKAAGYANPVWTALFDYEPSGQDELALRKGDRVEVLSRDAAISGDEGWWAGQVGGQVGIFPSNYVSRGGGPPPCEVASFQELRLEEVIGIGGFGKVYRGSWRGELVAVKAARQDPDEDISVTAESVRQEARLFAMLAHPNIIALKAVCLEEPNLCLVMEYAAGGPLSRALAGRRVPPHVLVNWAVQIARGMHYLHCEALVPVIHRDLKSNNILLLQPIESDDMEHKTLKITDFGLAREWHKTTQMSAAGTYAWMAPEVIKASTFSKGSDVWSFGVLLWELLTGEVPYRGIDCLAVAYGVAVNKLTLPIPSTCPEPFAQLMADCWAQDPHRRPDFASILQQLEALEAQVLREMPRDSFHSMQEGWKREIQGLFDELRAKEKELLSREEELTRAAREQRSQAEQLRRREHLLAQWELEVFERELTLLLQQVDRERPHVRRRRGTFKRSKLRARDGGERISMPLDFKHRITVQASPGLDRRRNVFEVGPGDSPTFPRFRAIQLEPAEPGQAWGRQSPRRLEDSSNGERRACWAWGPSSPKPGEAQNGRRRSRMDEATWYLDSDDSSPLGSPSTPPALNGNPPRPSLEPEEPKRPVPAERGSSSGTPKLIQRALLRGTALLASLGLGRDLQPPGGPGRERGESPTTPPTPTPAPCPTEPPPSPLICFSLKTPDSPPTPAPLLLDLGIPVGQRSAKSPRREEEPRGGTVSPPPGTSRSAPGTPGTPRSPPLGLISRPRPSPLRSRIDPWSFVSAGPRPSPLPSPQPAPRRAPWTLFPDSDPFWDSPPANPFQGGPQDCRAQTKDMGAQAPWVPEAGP
Chain of LIMK2 (P53671 whole entry): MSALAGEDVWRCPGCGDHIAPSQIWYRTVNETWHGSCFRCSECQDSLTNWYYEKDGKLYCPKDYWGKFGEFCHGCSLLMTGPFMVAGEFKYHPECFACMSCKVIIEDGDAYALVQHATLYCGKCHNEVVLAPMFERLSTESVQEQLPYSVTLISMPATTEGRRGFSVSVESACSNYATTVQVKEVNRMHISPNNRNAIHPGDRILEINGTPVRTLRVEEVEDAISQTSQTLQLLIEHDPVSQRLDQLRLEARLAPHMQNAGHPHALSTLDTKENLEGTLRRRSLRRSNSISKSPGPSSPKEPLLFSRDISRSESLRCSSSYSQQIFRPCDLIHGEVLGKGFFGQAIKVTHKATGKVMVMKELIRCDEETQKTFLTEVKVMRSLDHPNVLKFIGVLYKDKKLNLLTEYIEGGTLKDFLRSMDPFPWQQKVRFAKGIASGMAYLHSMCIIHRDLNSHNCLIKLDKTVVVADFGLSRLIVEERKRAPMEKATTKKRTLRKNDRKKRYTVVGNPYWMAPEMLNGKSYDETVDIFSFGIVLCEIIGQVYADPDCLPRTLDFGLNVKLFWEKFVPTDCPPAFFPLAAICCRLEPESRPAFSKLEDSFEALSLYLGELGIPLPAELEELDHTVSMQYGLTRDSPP
Chain of BMPR1A (P36894 whole entry): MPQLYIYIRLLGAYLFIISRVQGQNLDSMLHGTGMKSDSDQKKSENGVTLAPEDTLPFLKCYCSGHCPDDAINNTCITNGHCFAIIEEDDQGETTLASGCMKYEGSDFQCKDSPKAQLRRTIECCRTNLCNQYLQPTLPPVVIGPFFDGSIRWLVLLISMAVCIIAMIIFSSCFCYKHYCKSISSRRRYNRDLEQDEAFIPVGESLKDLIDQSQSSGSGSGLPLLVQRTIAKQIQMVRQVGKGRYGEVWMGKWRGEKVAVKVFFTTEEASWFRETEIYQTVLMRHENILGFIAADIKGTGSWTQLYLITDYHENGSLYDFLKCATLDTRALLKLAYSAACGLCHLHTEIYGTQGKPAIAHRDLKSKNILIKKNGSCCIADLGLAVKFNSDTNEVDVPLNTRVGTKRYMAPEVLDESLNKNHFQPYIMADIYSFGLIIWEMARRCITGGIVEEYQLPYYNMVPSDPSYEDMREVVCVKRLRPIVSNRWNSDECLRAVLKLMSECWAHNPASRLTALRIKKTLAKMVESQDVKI
Chain of MAST3 (O60307 whole entry): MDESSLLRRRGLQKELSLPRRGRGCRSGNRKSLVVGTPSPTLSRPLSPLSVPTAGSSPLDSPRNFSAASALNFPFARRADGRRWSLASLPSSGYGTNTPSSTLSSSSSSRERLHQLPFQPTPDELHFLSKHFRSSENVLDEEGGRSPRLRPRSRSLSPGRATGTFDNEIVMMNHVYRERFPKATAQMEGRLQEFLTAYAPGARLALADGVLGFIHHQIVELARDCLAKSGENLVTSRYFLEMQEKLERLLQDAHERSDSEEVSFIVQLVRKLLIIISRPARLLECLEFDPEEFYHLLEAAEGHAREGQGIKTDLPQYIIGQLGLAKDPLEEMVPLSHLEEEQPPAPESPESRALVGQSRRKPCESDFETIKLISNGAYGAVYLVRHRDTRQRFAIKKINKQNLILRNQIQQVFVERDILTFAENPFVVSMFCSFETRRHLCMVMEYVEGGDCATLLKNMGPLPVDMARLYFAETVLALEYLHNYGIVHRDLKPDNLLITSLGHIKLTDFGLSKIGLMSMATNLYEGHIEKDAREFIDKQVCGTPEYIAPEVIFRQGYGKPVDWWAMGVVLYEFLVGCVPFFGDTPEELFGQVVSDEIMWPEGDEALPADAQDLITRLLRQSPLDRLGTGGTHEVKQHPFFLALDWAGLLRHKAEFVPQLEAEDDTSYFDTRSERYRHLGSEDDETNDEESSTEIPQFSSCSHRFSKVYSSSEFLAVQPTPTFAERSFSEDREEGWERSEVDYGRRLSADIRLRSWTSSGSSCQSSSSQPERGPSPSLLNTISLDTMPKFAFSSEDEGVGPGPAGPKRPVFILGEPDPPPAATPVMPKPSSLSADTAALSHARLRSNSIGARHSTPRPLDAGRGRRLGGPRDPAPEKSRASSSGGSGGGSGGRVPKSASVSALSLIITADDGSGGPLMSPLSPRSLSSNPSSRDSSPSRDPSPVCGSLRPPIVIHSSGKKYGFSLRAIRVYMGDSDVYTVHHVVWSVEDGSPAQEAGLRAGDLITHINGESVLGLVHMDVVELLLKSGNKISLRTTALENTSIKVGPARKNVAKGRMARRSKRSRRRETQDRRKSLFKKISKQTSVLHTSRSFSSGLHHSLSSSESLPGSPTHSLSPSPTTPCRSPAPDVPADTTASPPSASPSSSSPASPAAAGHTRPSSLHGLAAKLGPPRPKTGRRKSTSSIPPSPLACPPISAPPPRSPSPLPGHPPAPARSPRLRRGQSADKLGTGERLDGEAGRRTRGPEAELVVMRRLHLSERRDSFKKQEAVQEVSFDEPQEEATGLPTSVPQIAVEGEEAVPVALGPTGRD
Chain of CAMK2A (Q9UQM7 whole entry): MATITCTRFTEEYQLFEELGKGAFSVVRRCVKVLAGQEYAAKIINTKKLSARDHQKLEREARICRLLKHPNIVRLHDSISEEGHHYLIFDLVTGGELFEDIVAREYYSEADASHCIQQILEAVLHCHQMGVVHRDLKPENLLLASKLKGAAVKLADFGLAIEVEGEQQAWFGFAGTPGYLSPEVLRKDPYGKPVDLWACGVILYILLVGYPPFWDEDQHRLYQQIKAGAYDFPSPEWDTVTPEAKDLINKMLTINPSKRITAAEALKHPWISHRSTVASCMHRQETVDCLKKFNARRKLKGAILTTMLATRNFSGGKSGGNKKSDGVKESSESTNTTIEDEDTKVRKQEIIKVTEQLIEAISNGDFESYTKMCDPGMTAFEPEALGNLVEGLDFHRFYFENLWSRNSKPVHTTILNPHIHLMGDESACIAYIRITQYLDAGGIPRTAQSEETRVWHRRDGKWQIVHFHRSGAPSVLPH

| Compound | IC50 (MAP3K11) | IC50 (MAP3K3) | IC50 (MAST3) | IC50 (NLK) | IC50 (BMPR1A) | IC50 (CAMK2A) | IC50 (DSTYK) | IC50 (LIMK2) | IC50 (MAP4K4) | IC50 (TAOK3) |
| --- | --- | --- | --- | --- | --- | --- | --- | --- | --- | --- |
| CN1CCN(c2ccc(Nc3ncc(C#N)c(Nc4ccccc4C(N)=O)n3)cc2)CC1.Cl [TCMDC-134116] | 0.089 µM | 0.31 µM | 0.16 µM | 1.6 µM and 1.5 µM |  |  |  |  |  |  |
| Cl.NCC1(c2nc(-c3ccc(Cl)c(O)c3)c(-c3ccncc3)[nH]2)CCCCC1 [TCMDC-141154] |  |  | > 20 µM |  | > 20 µM | > 20 µM | > 20 µM | > 20 µM | 1.5 µM and 0.95 µM | 1.8 µM and 0.91 µM |
| CN(C)CC(O)COc1ccc(Nc2ncc([N+](=O)[O-])c(Nc3ccccc3O)n2)cc1.O=C(O)C(F)(F)F (centres unmarked) [TCMDC-141399] | 1.4 µM and 0.63 µM | 6 µM and > 20 µM |  | > 20 µM | > 20 µM | > 20 µM | > 20 µM | > 20 µM | 1.8 µM and 1.2 µM | > 20 µM |
